Values joined by “and” are separate entries in the source; they are usually repeats but may differ in a detail not shown here. Equal entries are not always repeated. One block for each molecule: values may come before it.
Experiments:
[1] = system: 3T3-L1 adipocytes; experiment: FGF21 activity assay, glucose uptake in 3T3-L1 adipocytes; assay type: cell-based, mouse
Protocol: The following assay may be used for determining the biological activity, or potency, of FGF21 compounds.
Mouse 3T3-L1 fibroblasts (e.g. available from ATCC, catalogue no. CL-173) are maintained in basal medium (DMEM (4500 mg/I Glucose) with 10% Fetal Bovine Serum (FBS) and Penicillin/Streptomycin). The cells are not allowed to reach confluence and should be passed (transferred to new vials) before reaching approx. 60% of confluency (by visual inspection).
For the glucose uptake assay, cells are plated 80,000 cells/well in a 24 well plate, or 20,000 cells/well in a 96 well plate, and when they reach confluency (high density, with a view to have differentiated adipose cells made), the medium is changed from basal medium to basal medium containing Troglitazone, IBMX, Dexamethasone (commercially available from, e.g., Sigma) and human insulin (commercially available from, e.g., Novo Nordisk A/S).
The cells are used 7-14, preferably 7-10, days after initiation of differentiation. […] The cells are lysed with Triton X-100 and lysates transferred to a 96 wells plate, microscint-40 (commercially available from, e.g., Perkin Elmer) is added and amount of tracer counted in a TOP-counter (e.g. a Packard top-counter from Perkin Elmer).
The EC50 of the FGF21 compound in question is calculated, and may be indicated relative to that of, e.g., compound F1.

[2] = system: pancreatic islets from diabetic db/db mice; experiment: Restoration of glucose stimulated insulin release ex vivo (islet perifusion); assay type: cell-based; set-up: AUC for time 35-75 minutes (glucose response), single repetitions / AUC for time 75-140 minutes (forskolin response), single repetitions: unit not given here; settings: FGF21 = 50 nM Compound F1, GLP-1 = 100 nM Compound G3
Protocol: This ex vivo example investigates the ability of pancreatic islets from diabetic db/db mice to restore, in response to treatment with FGF21 and GLP-1 compounds, the ability to release insulin in response to glucose stimulation.
Islets from 25 db/db mice (Charles River), 15 weeks of age, were isolated according to the following procedure:
Animals were killed by cervical dislocation and fixated with pins on a Styrofoam plate. Pancreata were removed and transferred to a Packard vial containing 5 ml collagenase (Life Science, grade II, cat. no. 100502) 300 units/ml (one pancreas/vial) which was kept on ice until all pancreata were removed. Then the pancreata were shaken in the Grant/Edmund S25 thermoshaker at 200 strokes/min. at 37° C. for 5 min. The tissue was transferred to a fresh vial containing 5 ml 150 units/ml collagenase (supernatant was discarded) and shaken again in the thermoshaker for 5 min. The tissue was further shaken 3-5 min. on the thermoshaker, and thereafter all shaking is done by hand for 5-10 sec. each time. These steps were repeated until all tissue was digested. The process was followed continuously under the stereomicroscope and once digested the tissue was pooled and collected in progressively fewer tubes. All supernatants were washed 3 times in HBSS+0.5% NCS (HBSS (10×) from Gibco, cat. no. 14060, is diluted 10× in H2O before use, Newborn Calf Serum (NCS) from Gibco, cat. no. 26010-066), allowed to sediment for 5 min. between each wash, and left on ice, following which the islets were ready for picking. Islets were purified by transferring a little bit of supernatant to a Petri dish, filling up with HBSS+NCS and subsequently transferring (by mouth pipetting) with a constriction pipette to a new Petri dish. From there the islet were re-picked until pure, and then incubated in RPMI 1640 medium (Gibco, cat no 61870-010)+10% NCS at 37° C.
After incubation, the islets were washed in Krebs Ringer solution (115 mM NaCl, 4.7 mM KCl, 2.6 mM CaCl2, 1.2 mM KH2PO4, 1.2 mM MgSO4, 10 mM HEPES, 0.2% BSA, 2 mM glutamine, 5 mM NaHCO3, pH 7.4) and subsequently used in an islet perifusion experiment (Suprafusion 2500 from Brandel). For each of the three preincubation conditions four perifusion columns each with 60 islets were used. The islets were placed in Bio-gel P2 (Bio-Rad. cat. no. 150-4114) in the columns with a nylon mesh below and above the gel. The islets were initially perifused for 40 minutes with Krebs Ringer solution containing 3 mM glucose to obtain a stable baseline of insulin release. After 40 minutes the buffer was exchanged to 15 mM glucose for 30 minutes (time 40-70 min). Then the buffer was exchanged to 15 mM glucose containing 10 μM forskolin (Tocris 1099, batch 3A/86008) for 40 minutes (time 70-110 min). Finally the buffer was exchanged to low glucose (3 mM) for 30 minutes (time 110-140 min). The buffer was set to flow through the perifusion system at a rate of 0.3 ml/minute. Samples were taken every 5 minutes from time 30 to 140 min. Samples were stored at −20° C. and subsequently analysed for insulin, essentially as described by Poulsen et al. in Journal of Biomolecular Screening 12(X); p. 1-8, 2007 (LOCI (Luminescent Oxygen Channeling Immunoassay) sandwich immunoassay).
The results (ng/ml insulin) are shown in Table 1 below as mean+/−standard error of mean (SEM). The figures for the control and the FGF21 compound are based on three repetitions (due to problems with one of the four columns in these two experiments), while the figures for the GLP-1 compound are based on four repetitions.
The corresponding Area Under the Curve (designated AUC) figures were also calculated, and for the statistics the Student's T-test was used.

[3] = molecular target: human GLP-1 receptor (human, UniProt P43220 24-463); experiment: cell-based or functional assay
Chain of human GLP-1 receptor (P43220 24-463): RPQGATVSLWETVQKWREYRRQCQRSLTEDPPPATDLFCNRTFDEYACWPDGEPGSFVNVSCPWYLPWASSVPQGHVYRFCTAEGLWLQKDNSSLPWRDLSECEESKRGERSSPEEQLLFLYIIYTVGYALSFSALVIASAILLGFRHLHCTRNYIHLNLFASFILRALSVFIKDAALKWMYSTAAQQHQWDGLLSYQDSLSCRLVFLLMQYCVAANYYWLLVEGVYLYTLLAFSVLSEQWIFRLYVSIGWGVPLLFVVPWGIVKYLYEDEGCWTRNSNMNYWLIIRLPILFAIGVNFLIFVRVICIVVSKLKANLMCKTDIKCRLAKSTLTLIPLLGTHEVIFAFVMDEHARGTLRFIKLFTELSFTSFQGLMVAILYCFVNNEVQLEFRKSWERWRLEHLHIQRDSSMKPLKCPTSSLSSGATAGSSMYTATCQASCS

[4] = insulin AUC per perifusion column

Molecule: S-71-({2-[2-(2-{2-[2-(2-{2-[(S)-4-carboxy-4-(19-carboxynonadecanoyl-amino)butyrylamino]ethoxy}ethoxy)acetylamino]ethoxy}ethoxy)acetylamino]ethylcarbamoyl}methyl)-[Cys71]Met-FGF21 [compound F2]
EC50 relative to that of compound F1 [1]: 11%

Molecule: N-epsilon26-[2-(2-{2-[2-(2-{2-[(S)-4-Carboxy-4-(17-carboxyheptadecanoylamino)butyrylamino]ethoxy}-ethoxy)acetylamino]ethoxy}ethoxy)acetyl][Aib8,Arg34]GLP-1-(7-37) [compound G3]
AUC for time 35-75 minutes (glucose response), single repetitions [2, 4]: 450.5 and 528.5 and 492.9 and 367.8 | AUC for time 75-140 minutes (forskolin response), single repetitions [2, 4]: 3339 and 4005 and 3037 and 2674 | AUC for time 75-140 minutes (forskolin response), mean ([2]; insulin AUC, * FGF21 vs GLP-1): (mean 3239) | AUC for time 35-75 minutes (glucose response), mean ([2]; insulin AUC, ** vs control): (mean 459.9**)

EC50 of cAMP formation (AlphaScreen cAMP assay), relative to that of compound G1 [3]: ~5 times the EC50 of compound G1
B1: N-epsilon37-[2-(2-{2-[2-(2-{2-[(S)-4-Carboxy-4-({trans-4-[(19-carboxynonadecanoylamino)methyl]cyclohexanecarbonyl}amino)butyrylamino]ethoxy}ethoxy)acetylamino]e … (peptide)
peptide: HAEGTFTSDVSSYLEEQAAREFIAWLVRGRK
modifications: DesaminoHis at position 7 (GLP-1 numbering; position 1 of SEQ ID NO:3); Lys37 acylated at N-epsilon with 19-carboxynonadecanoyl-Trx-gamma-Glu-OEG-OEG albumin binder

B2: N-alpha1-[2-(2-{2-[2-(2-{2-[(S)-4-carboxy-4-(17-carboxyheptadecanoylamino)butyrylamino]ethoxy}ethoxy)acetylamino]ethoxy}ethoxy)acetyl][Arg56, Arg59, Arg69, Arg122]-Met-FGF21 (protein, listed as Homo sapiens)
chain: HPIPDSSPLLQFGGQVRQRYLYTDDAQQTEAHLEIREDGTVGGAADQSPESLLQLRALRPGVIQILGVRTSRFLCQRPDGALYGSLHFDPEACSFRELLLEDGYNVYQSEAHGLPLHLPGNRSPHRDPAPRGPARFLPLPGLPPALPEPPGILAPQPPDVGSSDPLSMVGPSQGRSPSYAS
modifications: N-terminal Met; N-alpha fatty diacid-gGlu-OEG-OEG acylation; mat_peptide (1)..(181); DISULFID (75)..(93)
EC50 relative to that of compound F1 [1]: 30%

Source: patent publication US20120172298A1, “GLP-1 AND FGF21 COMBINATIONS FOR TREATMENT OF DIABETES TYPE 2” (Novo Nordisk A/S, priority 2009, published 2012)
